Test results as given in patent publication US11780826B2 (Amgen Inc., priority 2017, dated 2023).

The compounds below were run on Bovine cardiac myofibrils (assay: In vitro model of dose-dependent myofibril ATPase modulation (AC1.4, pyruvate kinase/lactate dehydrogenase-coupled ATPase assay at pCa25)). Conditions: concentration at which ATPase activity was 1.4-fold higher than the bottom of the dose curve, mean of a minimum of two independent tests.
Type: biochemical
Method in brief: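 We measure calcium-buffered ATPase activity of detergent-skinned bovine cardiac myofibrils at pH 6.80 and 22° C with 1 mM ATP, using a PK/LDH-coupled NADH readout at 340 nm. Values come from four-parameter dose-response fits, averaged over at least two independent runs.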

Row | SMILES | AC1.4 [µM]
1 | N#CC1CN(S(=O)(=O)N2CCC[C@H](C(=O)N3CCC[C@@H]3C(=O)NCc3ccccc3F)C2)C1 [Example 684, 1-(((3S)-1-((3-cyano-1-azetidinyl)sulfonyl)-3-piperidinyl)carbonyl)-N-(2-fluorobenzyl)-D-prolinamide] | 5.1985
2 | CS(=O)(=O)c1cccc(C(=O)N2[C@@H](C(=O)NC(c3ccc(C(F)(F)F)cc3F)C3CNC(=O)C3)C[C@H]3C[C@H]32)c1 (stereo partly drawn) [Example 685, (1R,3R,5R)-N-((2-fluoro-4-(trifluoromethyl)phenyl)(5-oxopyrrolidin-3-yl)methyl)-2-(3-(methylsulfonyl)benzoyl)-2-azabicyclo[3.1.0]hexane-3-carboxamide] | 5.246
3 | O=C(N[C@@H](c1ccc(C(F)(F)F)c(F)c1)C1CC1)[C@H]1C[C@H]2C[C@H]2N1C(=O)c1ccnc(S(=O)(=O)C2CC2)c1 [Example 686, (1R,3R,5R)-N-((R)-cyclopropyl(3-fluoro-4-(trifluoromethyl)phenyl)methyl)-2-((2-(cyclopropylsulfonyl)-4-pyridinyl)carbonyl)-2-azabicyclo[3.1.0]hexane-3-carboxamide] | 5.284
4 | NS(=O)(=O)c1ccc(Cl)c(C(=O)N2CCC[C@@H]2C(=O)N[C@@H](c2ccc(C(F)(F)F)cc2F)C2CC2)c1 [Example 687, 1-(2-chloro-5-sulfamoylbenzoyl)-N-((R)-cyclopropyl(2-fluoro-4-(trifluoromethyl)phenyl)methyl)-D-prolinamide] | 5.299
5 | Cc1noc(C2CN(S(=O)(=O)N3CCC[C@H](C(=O)N4CCC[C@@H]4C(=O)NCc4ccc(C(F)(F)F)cc4)C3)C2)n1 [Example 688, 1-(((3S)-1-((3-(3-methyl-1,2,4-oxadiazol-5-yl)-1-azetidinyl)sulfonyl)-3-piperidinyl)carbonyl)-N-(4-(trifluoromethyl)benzyl)-D-prolinamide] | 5.317
6 | N#CC1CN(S(=O)(=O)c2cccc(C(=O)N3CCC[C@@H]3C(=O)NCCn3ccc(C(F)(F)F)n3)c2)C1 [Example 689, 1-((3-((3-cyano-1-azetidinyl)sulfonyl)phenyl)carbonyl)-N-(2-(3-(trifluoromethyl)-1H-pyrazol-1-yl)ethyl)-D-prolinamide] | 5.334
7 | CS(=O)(=O)c1cc(C(=O)N2CCC[C@@H]2C(=O)N[C@@H](c2ccc(C(F)(F)F)cc2F)C2CC2)ccc1F [Example 690, N-((R)-cyclopropyl(2-fluoro-4-(trifluoromethyl)phenyl)methyl)-1-(4-fluoro-3-(methylsulfonyl)benzoyl)-D-prolinamide] | 5.354
8 | CC1(c2cccc(C(=O)N3CCC[C@@H]3C(=O)N[C@@H](c3ccc(C(F)(F)F)cc3F)C3CC3)c2)COC1 [Example 691, N-((R)-cyclopropyl(2-fluoro-4-(trifluoromethyl)phenyl)methyl)-1-(3-(3-methyl-3-oxetanyl)benzoyl)-D-prolinamide] | 5.3575
9 | COCC(=O)NC1CN(S(=O)(=O)N2CCC[C@H](C(=O)N3CCC[C@@H]3C(=O)NCc3ccc(C(F)(F)F)cc3)C2)C1 [Example 692, 1-(((3S)-1-((3-((methoxyacetyl)amino)-1-azetidinyl)sulfonyl)-3-piperidinyl)carbonyl)-N-(4-(trifluoromethyl)benzyl)-D-prolinamide] | 5.379
10 | CN1C[C@H](C(=O)N[C@@H](c2ccc(C(F)(F)F)cc2F)C2CC2)N(C(=O)c2cccc(S(C)(=O)=O)c2)C1=O [Example 693, (4R)-N-((R)-cyclopropyl(2-fluoro-4-(trifluoromethyl)phenyl)methyl)-1-methyl-3-(3-(methylsulfonyl)benzoyl)-2-oxo-4-imidazolidinecarboxamide] | 5.425
11 | N#CC1CN(S(=O)(=O)N2CCC[C@H](C(=O)N3CCC[C@H]3C(=O)NCc3cc(F)cc(F)c3)C2)C1 [Example 694, 1-(((3S)-1-((3-cyano-1-azetidinyl)sulfonyl)-3-piperidinyl)carbonyl)-N-(3,5-difluorobenzyl)-L-prolinamide] | 5.48
12 | Cc1cncc(C(=O)N2[C@@H](C(=O)N[C@@H](c3cc(F)c(Cl)cc3F)C3COC3)C[C@H]3C[C@H]32)c1 [Example 695, (1R,3R,5R)-N-((R)-(4-chloro-2,5-difluorophenyl)(3-oxetanyl)methyl)-2-((5-methyl-3-pyridinyl)carbonyl)-2-azabicyclo[3.1.0]hexane-3-carboxamide] | 5.5132
13 | CN1CC(C(=O)N[C@@H](c2ccc(C(F)(F)F)cc2F)C2CC2)N(C(=O)c2cccc(S(C)(=O)=O)c2)C1=O (stereo partly drawn) [Example 696, N-((R)-cyclopropyl(2-fluoro-4-(trifluoromethyl)phenyl)methyl)-1-methyl-3-(3-(methylsulfonyl)benzoyl)-2-oxoimidazolidine-4-carboxamide] | 5.525
14 | O=C(NCc1ccc(C(F)(F)F)cc1)[C@H]1CCCN1C(=O)[C@H]1CCCN(S(=O)(=O)N2CCC2c2ccc(Cl)cc2)C1 (stereo partly drawn) [Example 697, (2R)-1-((3S)-1-((2-(4-chlorophenyl)azetidin-1-yl)sulfonyl)piperidine-3-carbonyl)-N-(4-(trifluoromethyl)benzyl)pyrrolidine-2-carboxamide] | 5.5445
15 | C[C@@H](NC(=O)[C@H]1CCCN1C(=O)[C@H]1CCCN(S(=O)(=O)N2CC(C#N)C2)C1)c1ccc(F)cc1OC(F)F [Example 698, 1-(((3S)-1-((3-cyano-1-azetidinyl)sulfonyl)-3-piperidinyl)carbonyl)-N-((1R)-1-(2-(difluoromethoxy)-4-fluorophenyl)ethyl)-D-prolinamide] | 5.5675
16 | O=C(NCc1ccc(C(F)(F)F)cc1)[C@H]1CCCN1C(=O)[C@H]1CCCN(S(=O)(=O)N2CC(Cc3ccc(Cl)cc3)C2)C1 [Example 699, 1-(((3S)-1-((3-(4-chlorobenzyl)-1-azetidinyl)sulfonyl)-3-piperidinyl)carbonyl)-N-(4-(trifluoromethyl)benzyl)-D-prolinamide] | 5.5865
17 | COc1ccc(F)cc1CNC(=O)[C@H]1CCCN1C(=O)[C@H]1CCCN(S(=O)(=O)N2CC(C#N)C2)C1 [Example 700, (((3S)-1-((3-cyano-1-azetidinyl)sulfonyl)-3-piperidinyl)carbonyl)-N-(5-fluoro-2-methoxybenzyl)-D-prolinamide] | 5.588
18 | N#Cc1cccc(C(=O)N2CCC[C@@H]2C(=O)N[C@@H](c2ccc(C(F)(F)F)cc2F)C2CC2)c1 [Example 701, 1-(3-cyanobenzoyl)-N-((R)-cyclopropyl(2-fluoro-4-(trifluoromethyl)phenyl)methyl)-D-prolinamide] | 5.643
19 | Cc1ccnc(C(=O)N2[C@@H](C(=O)N[C@@H](c3cc(F)c(Cl)cc3F)C3CC3)C[C@H]3C[C@H]32)c1 [Example 702, (1R,3R,5R)-N-((R)-(4-chloro-2,5-difluorophenyl)(cyclopropyl)methyl)-2-((4-methyl-2-pyridinyl)carbonyl)-2-azabicyclo[3.1.0]hexane-3-carboxamide] | 5.6535
20 | O=C(NCc1ccc(C(F)(F)F)cc1)[C@H]1CCCN1C(=O)[C@H]1CCCN(S(=O)(=O)N2CC(F)(F)C2)C1 [Example 703, 1-(((3S)-1-((3,3-difluoro-1-azetidinyl)sulfonyl)-3-piperidinyl)carbonyl)-N-(4-(trifluoromethyl)benzyl)-D-prolinamide] | 5.723
21 | CS(=O)(=O)N1CC(c2cccc(C(=O)N3CCC[C@@H]3C(=O)N[C@@H](c3ccc(C(F)(F)F)cc3F)C3CC3)c2)C1 [Example 704] | 5.725
22 | N#CC1CN(S(=O)(=O)N2CCC[C@H](C(=O)N3CCC[C@@H]3C(=O)NC3Cc4ccccc43)C2)C1 (stereo partly drawn) [Example 705, (2R)-N-(bicyclo[4.2.0]octa-1 (6),2,4-trien-7-yl)-1-((S)-1-((3-cyanoazetidin-1-yl)sulfonyl)piperidine-3-carbonyl)pyrrolidine-2-carboxamide] | 5.7373
23 | CS(=O)(=O)c1cccc(C(=O)N2C[C@@H](F)C[C@@H]2C(=O)N[C@@H](c2ccc(C(F)(F)F)cc2F)C2(F)COC2)c1 [Example 706, (4S)-4-fluoro-N-((S)-(3-fluoro-3-oxetanyl)(2-fluoro-4-(trifluoromethyl)phenyl)methyl)-1-(3-(methylsulfonyl)benzoyl)-D-prolinamide] | 5.7465
24 | O=C(NCc1ccc(C(F)(F)F)cc1)[C@H]1CCCN1C(=O)[C@H]1CCCN(S(=O)(=O)N2CC(c3ccccn3)C2)C1 [Example 707, 1-(((3S)-1-((3-(2-pyridinyl)-1-azetidinyl)sulfonyl)-3-piperidinyl)carbonyl)-N-(4-(trifluoromethyl)benzyl)-D-prolinamide] | 5.821
25 | CCOc1ccc(CNC(=O)[C@H]2CCCN2C(=O)[C@H]2CCCN(S(=O)(=O)N3CC(C#N)C3)C2)cc1F [Example 708, 1-(((3S)-1-((3-cyano-1-azetidinyl)sulfonyl)-3-piperidinyl)carbonyl)-N-(4-ethoxy-3-fluorobenzyl)-D-prolinamide] | 5.8345
26 | O=C(NC1CN(S(=O)(=O)N2CCC[C@H](C(=O)N3CCC[C@@H]3C(=O)NCc3ccc(C(F)(F)F)cc3)C2)C1)C1CC1 [Example 710, 1-(((3S)-1-((3-((cyclopropylcarbonyl)amino)-1-azetidinyl)sulfonyl)-3-piperidinyl)carbonyl)-N-(4-(trifluoromethyl)benzyl)-D-prolinamide] | 5.887
27 | CN(C)C(=O)C1CN(S(=O)(=O)N2CCC[C@H](C(=O)N3CCC[C@@H]3C(=O)NCc3ccc(C(F)(F)F)cc3)C2)C1 [Example 712, (R)-1-((S)-1-((3-(dimethylcarbamoyl)azetidin-1-yl)sulfonyl)piperidine-3-carbonyl)-N-(4-(trifluoromethyl)benzyl)pyrrolidine-2-carboxamide] | 5.9215
28 | O=C(N[C@@H](c1cc(F)c(Cl)cc1F)C1CC1)[C@H]1C[C@H]2C[C@H]2N1C(=O)c1cc(C2CC2)ccn1 [Example 713, (1R,3R,5R)-N-((R)-(4-chloro-2,5-difluorophenyl)(cyclopropyl)methyl)-2-((4-cyclopropyl-2-pyridinyl)carbonyl)-2-azabicyclo[3.1.0]hexane-3-carboxamide] | 6.039
